Test results reported in patent publication US20240350494A1, “THERAPEUTIC MODULATION OF INTEGRINS” (Pliant Therapeutics, Inc., priority 2021, published 2024).

Test system: SMAD3 phosphorylation
Experiment: Murine bleomycin model, SMAD3 phosphorylation
Type: in vivo, mice (C57BL/6)
Conditions: bleomycin day 0, oral gavage BID 14 days from day 7 at 1×, 5×, FIG. 2C
Source text: It has been previously shown that inhibition of αVβ6 in the lung can be detected though measurement of phospho-SMAD (pSMAD) in alveolar macrophages. Alveolar macrophages are known to operate in a unique niche in the lung, distinct from interstitial macrophages. SMAD3 is a downstream target of the active TGF-β cytokine binding its receptor and in alveolar macrophages it is phosphorylated by homoeostatic levels of TGF-β. Accordingly, it was desirable to know whether inhibition of TGF-β activation using the disclosed compounds would result in reduced SMAD2 and SMAD3 phosphorylation.
Mice (C57BL/6) were divided into healthy (n=15), vehicle-treated (n=15), and test article-treated (n=15 per dose) groups. Mice in the vehicle and test article-treated groups were administered 3 U/kg of bleomycin (Teva Pharmaceuticals; North Wales, PA) via oropharyngeal aspiration while under anesthesia on day 0. Healthy animals were administered water in a similar fashion. Starting on day 7, mice in the control group were administered PBS vehicle, 130 μL, by oral gavage, BID for 14 days. Also starting on day 7, mice in the test group were administered compound 5 in PBS by oral gavage, BID for 14 days, at relative dosages of 1×, 2.5× and 5×. […] From day 14 through day 21, 9 of the 15 mice were administered ^2H2O for labeling. All mice were sacrificed on day 21 and tissues were collected. […]

SMILES: COCCN(CCCCc1ccc2c(n1)NCCC2)CC[C@H](Nc1ncnc2ccccc12)C(=O)O [Compound 5, (S)-4-((2-methoxyethyl)(4-(5,6,7,8-tetrahydro-1,8-naphthyridin-2-yl)butyl)amino)-2-(quinazolin-4-ylamino)butanoic acid]
- SMAD3 phosphorylation in lung tissue compared to vehicle-treated mice: substantial, statistically significant dose-dependent reductions
